Source: US20250368678A1, “19-NOR-C3,3-DISUBSTITUTED C21-AZACYCLO-S[…] AND METHOD FOR USING SAME” (SHANDONG LUYE PHARMACEUTICAL CO., LTD., priority 2022, published 2025)
Where two headings read alike, the source gives them in different places.

What was measured:
[1] = biological target: T1, α1β2γ2 GABA receptors (α1β2γ2-CHO-TRex stable cell strain) (Homo sapiens, UniProt P14867+P47870); assay: Whole-cell patch clamp, intrasynaptic functional activity (positive allosteric regulation of GABA-induced current); type: cell-based; conditions: patch clamp -60 mV, GABA at EC10-20, α1β2γ2-CHO-TRex cells
T1 construct: expressed in transfected cells
T1 sequence (P14867 28-456): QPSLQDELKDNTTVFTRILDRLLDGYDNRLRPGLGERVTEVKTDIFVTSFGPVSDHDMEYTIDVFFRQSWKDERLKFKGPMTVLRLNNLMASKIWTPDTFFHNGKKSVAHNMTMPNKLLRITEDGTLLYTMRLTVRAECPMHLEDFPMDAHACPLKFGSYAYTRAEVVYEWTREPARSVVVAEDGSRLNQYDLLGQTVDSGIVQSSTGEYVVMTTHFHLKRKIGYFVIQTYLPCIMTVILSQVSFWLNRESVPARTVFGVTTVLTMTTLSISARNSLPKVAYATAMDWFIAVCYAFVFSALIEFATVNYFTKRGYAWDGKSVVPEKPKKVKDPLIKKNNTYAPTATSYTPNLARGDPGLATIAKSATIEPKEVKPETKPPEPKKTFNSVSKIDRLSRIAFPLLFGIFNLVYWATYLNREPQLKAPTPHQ
T1 sequence (P47870 25-512 limits assumed): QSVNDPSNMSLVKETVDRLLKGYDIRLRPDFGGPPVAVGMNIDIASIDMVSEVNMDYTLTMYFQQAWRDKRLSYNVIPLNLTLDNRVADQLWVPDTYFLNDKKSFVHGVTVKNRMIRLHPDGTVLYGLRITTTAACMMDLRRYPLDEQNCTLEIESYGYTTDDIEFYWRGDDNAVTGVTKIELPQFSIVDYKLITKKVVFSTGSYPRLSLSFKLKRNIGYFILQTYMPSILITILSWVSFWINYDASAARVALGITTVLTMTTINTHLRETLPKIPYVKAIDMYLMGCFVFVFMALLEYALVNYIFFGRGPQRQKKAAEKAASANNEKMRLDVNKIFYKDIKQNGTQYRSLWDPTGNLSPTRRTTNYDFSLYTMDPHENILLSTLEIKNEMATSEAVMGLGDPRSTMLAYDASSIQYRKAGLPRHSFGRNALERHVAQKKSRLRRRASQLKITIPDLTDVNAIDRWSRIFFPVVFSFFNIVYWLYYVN
T1 sequence (P18507 40-475 partner): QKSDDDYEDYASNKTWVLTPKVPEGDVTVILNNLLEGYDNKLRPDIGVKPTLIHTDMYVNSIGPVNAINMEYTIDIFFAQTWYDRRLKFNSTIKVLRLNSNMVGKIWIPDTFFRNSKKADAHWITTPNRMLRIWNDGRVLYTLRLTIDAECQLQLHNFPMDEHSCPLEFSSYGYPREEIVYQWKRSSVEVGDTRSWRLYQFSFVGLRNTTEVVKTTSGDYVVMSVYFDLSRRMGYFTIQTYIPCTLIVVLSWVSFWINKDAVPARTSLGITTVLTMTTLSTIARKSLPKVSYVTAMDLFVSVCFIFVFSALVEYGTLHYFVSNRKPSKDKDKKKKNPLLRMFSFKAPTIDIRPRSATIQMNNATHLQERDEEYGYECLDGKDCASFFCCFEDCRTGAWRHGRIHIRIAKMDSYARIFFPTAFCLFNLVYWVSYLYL
Method in brief: (§1)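 Tetracycline-induced stable lines were used: α4β3δ in HEK-FlpIn-TRex and α1β2γ2 in CHO-TRex. Whole-cell patch clamp was run at −60 mV with GABA at EC10-20 ([…]) and compound perfused for 30 s before GABA, with extracellular pH 7.4. Fold increase in GABA current over ≥5 concentrations on ≥3 cells gave EC50 and Emax by Hill fit.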

[2] = biological target: T2, α4β3δ GABA receptors (α4β3δ-HEK-FlpIn-TRex stable cell strain) (Homo sapiens, UniProt P28472+P48169); assay: Whole-cell patch clamp, extrasynaptic functional activity (positive allosteric regulation of GABA-induced current); type: cell-based; conditions: patch clamp -60 mV, GABA at EC10-20, α4β3δ-HEK-FlpIn-TRex cells
T2 construct: expressed in transfected cells
T2 sequence (P48169 36-554): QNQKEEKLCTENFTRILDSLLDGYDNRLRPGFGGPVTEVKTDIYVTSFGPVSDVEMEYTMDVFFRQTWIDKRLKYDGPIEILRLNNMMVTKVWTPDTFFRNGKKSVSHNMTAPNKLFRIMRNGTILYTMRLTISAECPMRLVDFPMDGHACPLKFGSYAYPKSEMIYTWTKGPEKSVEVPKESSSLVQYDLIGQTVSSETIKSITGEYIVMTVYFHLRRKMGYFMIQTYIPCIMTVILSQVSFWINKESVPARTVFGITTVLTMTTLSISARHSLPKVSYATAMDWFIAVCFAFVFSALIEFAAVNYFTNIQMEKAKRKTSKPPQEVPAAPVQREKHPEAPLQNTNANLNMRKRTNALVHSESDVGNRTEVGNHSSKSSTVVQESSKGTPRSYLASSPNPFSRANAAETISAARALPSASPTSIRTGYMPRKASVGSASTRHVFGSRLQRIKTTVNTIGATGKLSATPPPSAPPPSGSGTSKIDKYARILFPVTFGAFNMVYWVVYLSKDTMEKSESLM
T2 sequence (P28472 26-473): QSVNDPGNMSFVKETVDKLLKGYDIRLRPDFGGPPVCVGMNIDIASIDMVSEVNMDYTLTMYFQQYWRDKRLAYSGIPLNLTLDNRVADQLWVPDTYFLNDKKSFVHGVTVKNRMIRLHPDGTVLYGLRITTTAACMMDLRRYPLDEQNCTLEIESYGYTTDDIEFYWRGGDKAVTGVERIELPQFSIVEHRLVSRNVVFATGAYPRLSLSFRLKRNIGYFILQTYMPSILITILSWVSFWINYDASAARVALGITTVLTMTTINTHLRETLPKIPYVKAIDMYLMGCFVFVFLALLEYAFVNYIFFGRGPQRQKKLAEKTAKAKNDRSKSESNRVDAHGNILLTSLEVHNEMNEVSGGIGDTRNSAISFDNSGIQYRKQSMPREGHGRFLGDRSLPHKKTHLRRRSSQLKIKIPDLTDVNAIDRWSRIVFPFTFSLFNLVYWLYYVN
T2 sequence (O14764 25-452 partner): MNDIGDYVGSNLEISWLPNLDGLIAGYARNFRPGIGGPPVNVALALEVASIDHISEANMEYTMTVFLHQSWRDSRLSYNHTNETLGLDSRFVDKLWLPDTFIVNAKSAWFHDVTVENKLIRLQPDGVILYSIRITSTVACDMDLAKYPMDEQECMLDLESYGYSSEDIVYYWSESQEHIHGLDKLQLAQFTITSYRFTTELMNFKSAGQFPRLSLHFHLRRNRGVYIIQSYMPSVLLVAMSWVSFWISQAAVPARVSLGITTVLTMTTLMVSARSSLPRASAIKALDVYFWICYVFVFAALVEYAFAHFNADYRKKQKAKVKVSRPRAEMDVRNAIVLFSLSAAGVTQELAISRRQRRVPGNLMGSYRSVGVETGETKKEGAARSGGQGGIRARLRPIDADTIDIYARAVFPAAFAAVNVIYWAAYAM
Method in brief: as §1

[3] = In vitro liver microsomal stability assay, rat; type: in vitro ADME
Method in brief: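 Test compound at […] was incubated at 37° C with 0.5 mg/mL rat or human liver microsomes, 1 mM NADPH and 3 mM MgCl2, in triplicate, sampled 0–60 min. Remaining parent was quantified by LC-MS/MS, giving half-life and microsomal and hepatic intrinsic clearance.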

[4] = Pharmacokinetic study in CD-1 mice (plasma and brain); type: in vivo
Procedure: Male CD-1 mice weighing about 25 g were randomly divided into groups of 3.
The intravenous (IV) dose was 1 mg/kg, and the intragastric (IG) dose was 5 mg/kg. Animals were fasted for 12 h before administration, with free access to water, and were fed together 3 h post-administration. Blood samples of about 0.15 mL were collected at 5 min (intravenous), 15 min, 30 min, 1 h, 2 h, 4 h, 8 h, 12 h, and 24 h post-administration into heparinized EP tubes and centrifuged at 13,500 rpm for 10 min to separate the plasma. Mouse brain tissue samples were collected after cardiac perfusion at 30 min, 2 h, and 8 h. After pretreatment, the samples were analyzed by LC-MS/MS to determine the concentration of the test compound in the plasma and brain, and pharmacokinetic parameters were calculated.

[5] = male, mouse, IV 1 mg/kg, plasma
[6] = male, mouse, plasma, IV 1 mg/kg
[7] = male, mouse, plasma, po, IG 5 mg/kg
[8] = male, mouse, po, IG 5 mg/kg, plasma

What does the source list for `C[C@@]1(O)CC[C@H]2[C@H](CC[C@@H]3[C@@H]2CC[C@]2(C)[C@@H](C(=O)Cn4cnn(-c5cc(F)nc(F)c5)c4=O)CC[C@@H]32)C1` [Compound 41]?
EC50 [1]: 145 nM; Emax [1]: 762%; EC50 [2]: 67 nM; Emax [2]: 754%; CLint scaled at 1 µM ([3]; Rat liver microsomes): 23 mL/min/kg; half-life at 1 µM ([3]; Rat liver microsomes): 1.8 h; Remaining amount % at 60 min ([3]; Rat liver microsomes 0.5 mg/mL, NADPH): 68.3%; microsomal CLint at 1 µM ([3]; Rat liver microsomes, read-out: CLint(mic)): 13 µL/min/mg; brain penetration capability (in words) ([4]; IG 5 mg/kg): strong; AUC(0-inf) [4, 5]: 4320 ng·h/mL; AUC(0-t) [4, 5]: 3660 ng·h/mL; C0 [4, 5]: 490 ng/mL; concentration at 30 min ([4]; male, mouse, brain, oral, IG 5 mg/kg, 30 min, read-out: Brain concentration): 847 ± 36 ng/g; concentration at 2 h ([4]; male, mouse, brain, oral, IG 5 mg/kg, 2 h, read-out: Brain concentration): 1920 ± 978 ng/g; concentration at 8 h ([4]; male, mouse, brain, oral, IG 5 mg/kg, 8 h, read-out: Brain concentration): 1590 ± 233 ng/g; Kp at 30 min ([4]; male, mouse, brain/plasma, oral, IG 5 mg/kg, 30 min, read-out: Brain-to-blood ratio): 0.9; Kp at 2 h ([4]; male, mouse, brain/plasma, oral, IG 5 mg/kg, 2 h, read-out: Brain-to-blood ratio): 1.5; Kp at 8 h ([4]; male, mouse, brain/plasma, oral, IG 5 mg/kg, 8 h, read-out: Brain-to-blood ratio): 1.8; MRT last [4, 6]: 7.9 h; half-life [4, 6]: 9 h; bioavailability ([4]; male, mouse, plasma, oral, IG 5 mg/kg vs IV 1 mg/kg, read-out: F (absolute bioavailability)): 109%; concentration at 30 min ([4]; male, mouse, plasma, oral, IG 5 mg/kg, 30 min, read-out: Plasma concentration): 936 ± 119 ng/mL; concentration at 2 h ([4]; male, mouse, plasma, oral, IG 5 mg/kg, 2 h, read-out: Plasma concentration): 1280 ± 345 ng/mL; concentration at 8 h ([4]; male, mouse, plasma, oral, IG 5 mg/kg, 8 h, read-out: Plasma concentration): 891 ± 72 ng/mL; MRT last [4, 7]: 9.8 h; Tmax [4, 7]: 1 h; half-life [4, 7]: 16.5 h; AUC(0-inf) [4, 8]: 31300 ng·h/mL; AUC(0-t) [4, 8]: 20000 ng·h/mL; Cmax [4, 8]: 1670 ng/mL
